Measured values: patent US10273228B2, “Hepatitis B viral assembly effectors” (Indiana University Research and Technology Corporation, priority 2015, dated 2019)

Tests used:
[1] = test system: HBV viral load, AD38 cells; assay: Activity of test compounds on viral production from AD38 cells (viral load by quantitative PCR of the core sequence in supernatant); format: cell-based, Hepatitis B virus; conditions: 10 μM compound, 6 days at 37° C., vs DMSO control wells, Table 9; for activity at 10 µM: Hepatitis B virus, 144 h, read-out: AD38 Viral Load (CpAM/DMSO %) at 10 μM
Protocol: (§1) AD38 cells were then re-suspended with 10 mL of treatment medium and counted. Wells of a collagen coated 96-well NUNC microtiter plate were seeded at 50,000/well in 180 μL of treatment medium, and 20 μL of either 10% DMSO (Control) or a 10× solution of test compound in 10% DMSO in treatment media was added for a final compound concentration 1, 3, or 10 μM (1.0% final [DMSO]) and plates were incubated for 6 days at 37° C.
Subsequently viral load production was assayed by quantitative PCR of the core sequence. Briefly, 5 μL of clarified supernatant was added to a PCR reaction mixture that contained forward primers HBV-f 5′-CTGTGCCTTGGGTGGCTTT-3′, Reverse primers HBV-r 5′-[…]-3′ and Fluorescent TaqMan™ Probes HBV-probe 5′-FAM/AGCTCCAAA/ZEN/[…]/3IABkFQ-3′ in Quanta Biosciences PerfeCTa® qPCR Toughmix®, and was subsequently on an Applied Biosystems VIIA7 in a final volume of 20 μL. The PCR mixture was incubated at 45° C. for 5 minutes, then 95° C. for 10 min, followed by 40 cycles of 10 seconds at 95° C. and 20 seconds at 60° C. Viral load was quantitated against known standards by using ViiA™ 7 Software. Viral load in the supernatant from wells with treated cells were compared against viral load in supernatant from DMSO control wells (≥3 per plate).

AD38 cells = assay: AD38 viability normalized to DMSO control; format: cell-based; conditions: 10 μM compound, vs DMSO control; Table 9
Protocol: as §1

| Structure (SMILES) | activity at 10 µM [1] [%] | AD38 Viability Normalized Result (CPAM/DMSO %) at 10 μM (AD38 cells) [%] | AD38 Viral Load (CpAM/DMSO %) at 10 μM [1] [%] |
| --- | --- | --- | --- |
| CCOc1ccc(S(=O)(=O)N2CCN(c3nc(Nc4ccc(F)cc4)cc(-c4nccs4)n3)CC2)cc1 [Compound 1358] | 77 | 99 | – |
| CCCCOc1ccc(S(=O)(=O)N2CCN(c3nc(Nc4ccc(F)cc4)cc(-c4nccs4)n3)CC2)cc1 [Compound 1359] | – | 97 | 60 |
| O=S(=O)(c1ccccc1)N1CCN(c2nc(Nc3ccc(F)cc3)cc(-c3nccs3)n2)CC1 [Compound 1360] | 28 | 94 | – |
| Cc1ccc(S(=O)(=O)N2CCN(c3nc(Nc4ccc(F)cc4)cc(-c4nccs4)n3)CC2)cc1 [Compound 1361] | 25 | 95 | – |
| O=S(=O)(c1ccc(F)cc1)N1CCN(c2nc(Nc3ccc(F)cc3)cc(-c3nccs3)n2)CC1 [Compound 1362] | 54 | 88 | – |
| COc1ccc(S(=O)(=O)N2CCN(c3nc(C)cc(Nc4ccc(C#N)cc4)n3)C(C)C2)cc1 (stereo not drawn) [Compound 1363] | 1 | 93 | – |
| N#Cc1ccc(Nc2cc(-c3nccs3)nc(N3CCN(S(=O)(=O)c4ccc(OC(F)(F)F)cc4)CC3)n2)cc1 [Compound 1364] | 62 | 100 | – |
| N#Cc1ccc(Nc2cc(-c3nccs3)nc(N3CCN(S(=O)(=O)c4ccc(F)cc4)CC3)n2)cc1 [Compound 1365] | 53 | 98 | – |
| COc1ccc(S(=O)(=O)N2CCN(c3nc(C)cc(Nc4ccc(C#N)cc4)n3)CC2=O)cc1 [Compound 1366, 4-((2-(4-((4-methoxyphenyl)sulfonyl)-3-oxopiperazin-1-yl)-6-methylpyrimidin-4-yl)amino) benzonitrile] | 41 | 108 | – |
| O=S(=O)(c1ccc(OC(F)(F)F)cc1)N1CCN(c2nc(Nc3ccc(F)cc3)cc(-c3nccs3)n2)CC1 [Compound 1367] | – | 105 | 44 |
| CCCCOc1ccc(S(=O)(=O)N2CCN(c3nc(Nc4ccc(F)cc4)cc(-c4nccs4)n3)CC2)cc1 [Compound 1368] | – | 94 | 147 |
| CCCCOc1ccc(S(=O)(=O)N2CCN(c3nc(Nc4ccc(C#N)cc4)cc(-c4cncs4)n3)CC2)cc1 [Compound 1369] | 56 | 96 | – |
| COc1ccc(S(=O)(=O)N2CCN(c3nc(C)cc(Nc4ccc(F)cc4)n3)CC2(C)C)cc1 [Compound 1370] | 12 | 114 | – |
| COc1ccc(S(=O)(=O)N2CCN(c3nc(C)cc(Nc4ccc(F)cc4)n3)C(C)C2)cc1 (stereo not drawn) [Compound 1371] | 29 | 111 | – |
| N#Cc1ccc(Nc2cc(-c3cncs3)nc(N3CCN(S(=O)(=O)c4ccc(OC(F)(F)F)cc4)CC3)n2)cc1 [Compound 1372] | 21 | 109 | – |
| CCOc1ccc(S(=O)(=O)N2CCN(c3nc(Nc4ccc(C#N)cc4)cc(-c4cncs4)n3)CC2)cc1 [Compound 1373] | 8 | 109 | – |
| N#Cc1ccc(Nc2cc(-c3cncs3)nc(N3CCN(S(=O)(=O)c4ccccc4)CC3)n2)cc1 [Compound 1374] | 7 | 107 | – |
| O=S(=O)(c1ccc(F)cc1)N1CCN(c2nc(Nc3ccc(F)cc3)cc(-c3nccs3)n2)CC1 [Compound 1375] | – | 104 | 43 |
| COc1ccc(S(=O)(=O)N2CCN(c3nc(C)cc(Nc4ccc(C#N)cc4)n3)CC2(C)C)cc1 [Compound 1376] | 20 | 121 | – |
| Cc1cc(Nc2ccc(C#N)cc2)nc(N2CCN(S(=O)(=O)c3ccc(OCCN(C)C)cc3)CC2)n1 [Compound 1377, 4-((2-(4-((4-(2-(dimethylamino)ethoxy)phenyl)sulfonyl)piperazin-1-yl)-6-methylpyrimidin-4-yl)amino) benzonitrile] | 1 | 15 | – |
| Cc1cc(Nc2ccc(F)cc2)nc(N2CCN(S(=O)(=O)c3ccc(OCCN(C)C)cc3)CC2)n1 [Compound 1378, 2-(4-((4-(2-(dimethylamino)ethoxy)phenyl)sulfonyl)piperazin-1-yl)-N-(4-fluorophenyl)-6-methylpyrimidin-4-amine] | 13 | 1 | – |
